Active and inactive are the calls of the source. No cut-off for these calls is given here.
Key:
MCF7 [1] = assay: Cytotoxicity against human MCF7 cells after 96 hrs by MTT assay; format: functional, cell-based; settings: MCF7, 96 h
MDA-MB-468 [2] = assay: Cytotoxicity against human MDA-MB-468 cells after 96 hrs by MTT assay; format: functional, cell-based; settings: MDA-MB-468, 96 h
T47D [3] = assay: Cytotoxicity against human T47D cells after 96 hrs by MTT assay; format: functional, cell-based
[4] = molecular target: T1, Ribosyldihydronicotinamide dehydrogenase [quinone] (Homo sapiens, UniProt P16083); assay: Inhibition of human recombinant NQO2 using DCPIPas substrate and NRH as cofactor measured for 1 min by spectrophotometry in the prsence of BSA
T1 sequence (P16083 whole entry): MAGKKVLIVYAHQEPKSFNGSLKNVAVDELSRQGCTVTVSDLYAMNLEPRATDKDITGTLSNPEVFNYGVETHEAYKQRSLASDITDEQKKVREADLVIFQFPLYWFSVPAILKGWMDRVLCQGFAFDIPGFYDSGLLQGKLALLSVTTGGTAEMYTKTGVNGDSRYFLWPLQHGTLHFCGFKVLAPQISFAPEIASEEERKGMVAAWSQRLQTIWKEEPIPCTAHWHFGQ

MDA-MB-231 [5] = assay: Cytotoxicity against human MDA-MB-231 cells after 96 hrs by MTT assay; format: functional, cell-based; settings: MDA-MB-231, 96 h
[6] = molecular target: T1, Ribosyldihydronicotinamide dehydrogenase [quinone]; assay: Inhibition of human recombinant NQO2 using DCPIPas substrate and NRH as cofactor measured for 1 min by spectrophotometry in the absence of BSA
[7] = molecular target: T1, Ribosyldihydronicotinamide dehydrogenase [quinone]; assay: Inhibition of human recombinant NQO2 using DCPIP as substrate and NRH as cofactor in absence of BSA
[8] = Drug uptake in Plasmodium falciparum 3D7 nucleus; format: ADME
Calf thymus DNA = settings: Bos taurus
Description: Binding affinity to calf thymus DNA assessed as change in melting temperature by UV-visible spectrophometry

Plasmodium falciparum = assay: Antimalarial activity against Plasmodium falciparum 3D7 infected in erythrocyte assessed as growth inhibition after 4 days by flow cytometry; format: functional, organism-based; settings: 3D7, 96 h
[9] = molecular target: NAD(P)H dehydrogenase [quinone] 1 (Homo sapiens) (UniProt P15559); assay: Inhibition of human recombinant NQO1 using NADH as substrate at 10 uM measured for 1 min by spectrophotometry in absence of BSA
Chain of NAD(P)H dehydrogenase [quinone] 1 (Homo sapiens) (P15559 whole entry): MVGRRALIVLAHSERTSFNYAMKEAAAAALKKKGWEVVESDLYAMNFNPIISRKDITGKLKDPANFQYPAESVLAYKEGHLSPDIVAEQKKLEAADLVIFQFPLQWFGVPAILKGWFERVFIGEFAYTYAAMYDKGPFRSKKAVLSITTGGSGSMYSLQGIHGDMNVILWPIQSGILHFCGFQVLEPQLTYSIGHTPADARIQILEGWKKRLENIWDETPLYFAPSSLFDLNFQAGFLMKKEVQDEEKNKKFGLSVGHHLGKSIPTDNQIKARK

T47D [10] = assay: Cytotoxicity against human T47D cells at 10 uM after 96 hrs by MTT assay; format: functional, cell-based
[11] = molecular target: NAD(P)H dehydrogenase [quinone] 1 (Homo sapiens) (UniProt P15559); assay: Inhibition of human recombinant NQO1 using NADH as substrate at 10 uM measured for 1 min by spectrophotometry in presence of BSA
MDA-MB-231 [12] = assay: Cytotoxicity against human MDA-MB-231 cells at 10 uM after 96 hrs by MTT assay; format: functional, cell-based
MDA-MB-468 [13] = assay: Cytotoxicity against human MDA-MB-468 cells at 10 uM after 96 hrs by MTT assay; format: functional, cell-based
MCF7 [14] = assay: Cytotoxicity against human MCF7 cells at 10 uM after 96 hrs by MTT assay; format: functional, cell-based

`N=C(N)c1ccc(-c2ccc(-c3ccccc3)[nH]2)cc1` showed an IC50 (MCF7 [1]) of 3200 nM, an IC50 (MDA-MB-468 [2]) of 3600 nM and an IC50 (T47D [3]) of 3400 nM. It also gave an IC50 [4] of 832 nM, an IC50 (MDA-MB-231 [5]) of 3800 nM and an IC50 [6] of 332 nM.
`Cc1c(-c2ccc(C(=N)N)cc2)oc(-c2ccc(C(=N)N)cc2)c1C` gave an IC50 [7] of 50 nM.
With `CCc1ccc(-c2ccc(-c3ccc(C(=N)N)cc3)o2)cc1` the IC50 (MCF7 [1]) was 3200 nM, the IC50 (MDA-MB-468 [2]) was 3300 nM and the IC50 (T47D [3]) was 3000 nM. The IC50 [4] was 312 nM, the IC50 (MDA-MB-231 [5]) was 3400 nM and the IC50 [6] was 202 nM.
In the case of `CC(=O)O.CC(=O)O.N=C(N)c1ccc(-c2ccc(-c3ccc(C(=N)N)cc3)o2)cc1`, the IC50 (MCF7 [1]) is reported as 13600 nM, the IC50 [7] is reported as 630 nM and the Drug uptake [8] is reported as “Active”. For the same compound, the ΔTm (Calf thymus DNA) was 20 °C, the IC50 (MDA-MB-468 [2]) was 14000 nM and the IC50 (T47D [3]) was 12800 nM. For the same compound, the IC50 [4] was 72 nM, the IC50 (MDA-MB-231 [5]) was 12500 nM and the IC50 [6] was 35 nM.
`N=C(N)c1ccc(-c2ccc(-c3cccc([N+](=O)[O-])c3)o2)cc1` gave an IC50 (MCF7 [1]) of 3000 nM, an IC50 (MDA-MB-468 [2]) of 3300 nM and an IC50 (T47D [3]) of 3300 nM. It also gave an IC50 [4] of 28 nM, an IC50 (MDA-MB-231 [5]) of 2900 nM and an IC50 [6] of 14.5 nM.
Work on `N=C(N)c1ccc(-c2ccc(-c3ccc([N+](=O)[O-])cc3)o2)cc1` yielded an IC50 (MCF7 [1]) of 3200 nM, an IC50 (MDA-MB-468 [2]) of 3400 nM and an IC50 (T47D [3]) of 3800 nM. It also gave an IC50 [4] of 24 nM, an IC50 (MDA-MB-231 [5]) of 3100 nM and an IC50 [6] of 15.2 nM.
With `CC(=O)O.Cc1ccc(-c2ccc(-c3ccc(C(=N)N)cc3)o2)cc1` the IC50 (MCF7 [1]) was 4800 nM, the Drug uptake [8] was “Not Active” and the ΔTm (Calf thymus DNA) was 2.8 °C. The IC50 (MDA-MB-468 [2]) was 3700 nM, the IC50 (T47D [3]) was 3100 nM and the IC50 (Plasmodium falciparum) was 57.5 nM. It also gave an IC50 [4] of 110 nM, an IC50 (MDA-MB-231 [5]) of 3400 nM and an IC50 [6] of 72 nM.
Compound `CC(C)(C)c1ccc(-c2ccc(-c3ccc(C(=N)N)cc3)o2)cc1` has an IC50 (MCF7 [1]) of 3700 nM, an IC50 (MDA-MB-468 [2]) of 3800 nM and an IC50 (T47D [3]) of 3600 nM. The IC50 [4] was 712 nM, the IC50 (MDA-MB-231 [5]) was 3200 nM and the IC50 [6] was 510 nM.
For `N=C(N)c1ccc(-c2ccc(-c3ccccc3)o2)cc1`, the IC50 (MCF7 [1]) was 2400 nM, the IC50 [7] was 140 nM and the ΔTm (Calf thymus DNA) was 1.9 °C. For the same compound, the IC50 (MDA-MB-468 [2]) was 2700 nM, the IC50 (T47D [3]) was 2800 nM and the IC50 [4] was 139 nM. It also gave an IC50 (MDA-MB-231 [5]) of 2000 nM and an IC50 [6] of 68 nM.
With `Oc1ccc(/C=C/c2cc(O)cc(O)c2)cc1` [RESVERATROL] the IC50 (MCF7 [1]) was 62000 nM, the IC50 (MDA-MB-468 [2]) was 58000 nM and the IC50 (T47D [3]) was 59000 nM. For the same compound, the IC50 (MDA-MB-231 [5]) was 57000 nM.
Compound `N=C(N)c1ccc(-c2ccc(-c3ccc(Br)cc3)o2)cc1` has an IC50 (MCF7 [1]) of 2600 nM, a ΔTm (Calf thymus DNA) of 4.4 °C and an IC50 (MDA-MB-468 [2]) of 2500 nM. It also gave an IC50 (T47D [3]) of 2400 nM, an IC50 [4] of 185 nM and an IC50 (MDA-MB-231 [5]) of 2700 nM. For the same compound, the IC50 [6] was 27 nM.
Compound `Cn1c(-c2ccccc2)ccc1-c1ccc(C(=N)N)cc1` has an IC50 (MCF7 [1]) of 2700 nM, a ΔTm (Calf thymus DNA) of 0.9 °C and an IC50 (MDA-MB-468 [2]) of 3800 nM. The IC50 (T47D [3]) was 2100 nM, the IC50 [4] was 943 nM and the IC50 (MDA-MB-231 [5]) was 2600 nM. The IC50 [6] was 410 nM.
For `COc1cccc2c1C(=O)c1c(O)c3c(c(O)c1C2=O)C[C@@](O)(C(=O)CO)C[C@@H]3O[C@H]1C[C@H](N)[C@H](O)[C@H](C)O1`, the ΔTm (Calf thymus DNA) was 20.5 °C.
`N=C(N)c1ccc(-c2ccc(-c3cccc(F)c3)o2)cc1` gave an IC50 (MCF7 [1]) of 2600 nM, a ΔTm (Calf thymus DNA) of 3.2 °C and an IC50 (MDA-MB-468 [2]) of 2400 nM. It also gave an IC50 (T47D [3]) of 2800 nM, an IC50 [4] of 111 nM and an IC50 (MDA-MB-231 [5]) of 2000 nM. The IC50 [6] was 98 nM.
With `CC(=O)O.N=C(N)c1ccc(-c2ccc(-c3ccc(F)cc3)o2)cc1` the IC50 (MCF7 [1]) was 3700 nM, the Drug uptake [8] was “Not Active” and the ΔTm (Calf thymus DNA) was 3.2 °C. It also gave an IC50 (MDA-MB-468 [2]) of 3800 nM, an IC50 (T47D [3]) of 3600 nM and an IC50 (Plasmodium falciparum) of 9.6 nM. The IC50 [4] was 836 nM, the IC50 (MDA-MB-231 [5]) was 3200 nM and the IC50 [6] was 505 nM.
For `N=C(N)c1cccc(-c2ccc(-c3ccccc3)o2)c1`, the inhibition [9] was “inactive”, the Activity (T47D [10]) was “inactive” and the inhibition [11] was “inactive”. The Activity (MDA-MB-231 [12]) was “inactive”, the Activity (MDA-MB-468 [13]) was “inactive” and the Activity (MCF7 [14]) was “inactive”.
In the case of `CC(=O)O.COc1ccc(-c2ccc(-c3ccc(C(=N)N)cc3)o2)cc1`, the IC50 (MCF7 [1]) is reported as 2800 nM, the Drug uptake [8] is reported as “Not Active” and the ΔTm (Calf thymus DNA) is reported as 2 °C. The IC50 (MDA-MB-468 [2]) was 2200 nM, the IC50 (T47D [3]) was 3000 nM and the IC50 (Plasmodium falciparum) was 139 nM. It also gave an IC50 [4] of 141 nM, an IC50 (MDA-MB-231 [5]) of 2500 nM and an IC50 [6] of 107 nM.

Source: ChEMBL document CHEMBL3769335, “Non-symmetrical furan-amidines as novel leads for the treatment of cancer and malaria” (Eur J Med Chem, 2016)
